Data: publication PMC8236048, “Pharmaceutical design of a delivery system for the bacteriocin lacticin 3147” (Drug Delivery and Translational Research, 2021)

Columns and labels:
L. lactis HP = details: at a neutral pH; cited from earlier work
From the text: Lacticin 3147 is a two-peptide (Ltnα and Ltnβ) bacteriocin produced by Lactococcus lactis DPC6577 (Fig. 1). It is classified as a lantibiotic due to the presence of lanthionine rings in its structure. The two peptides act synergistically, targeting lipid II, a precursor of peptidoglycan synthesis in Gram-positive bacteria, leading to inhibition of cell wall synthesis, pore formation, and eventual cell death. […] These masses correspond with those previously reported in the literature. Lacticin 3147′s activity against various strains including L. monocytogenes and C. difficile has been previously reported in the literature; however, for the purpose of this study, L. monocytogenes was used to establish the impact of solution composition, pH, and process ...

pepsin = molecular target: T1, pepsin (Sus scrofa, UniProt P00791); experiment: Enzyme degradation of lacticin 3147 by pepsin (activity, MALDI-TOF, RP-HPLC); type: in vitro ADME; details: 25 mg/ml pepsin, 3 h, 37 °C, pH 2.29; then growth curve at 400 nM peptides
T1 construct: purchased Sigma-Aldrich Ireland Ltd
T1 sequence (P00791 60-385): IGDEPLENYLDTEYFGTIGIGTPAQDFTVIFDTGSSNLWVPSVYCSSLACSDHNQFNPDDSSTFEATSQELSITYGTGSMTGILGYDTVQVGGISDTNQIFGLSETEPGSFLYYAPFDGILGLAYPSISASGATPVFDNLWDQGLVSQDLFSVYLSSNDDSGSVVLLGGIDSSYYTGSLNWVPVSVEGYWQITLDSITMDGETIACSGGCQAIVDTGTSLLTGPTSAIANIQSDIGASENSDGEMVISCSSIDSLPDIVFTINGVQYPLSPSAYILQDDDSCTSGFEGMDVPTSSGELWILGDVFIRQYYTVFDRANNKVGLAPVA
Procedure: Lacticin 3147 production was confirmed by matrix-assisted laser desorption ionization-time of flight (MALDI-TOF) mass spectrometry using sinapinic acid as the matrix. About 0.7 μl of the matrix solution (sinapinic acid, 4 mg/ml in 50% acetone/50% methanol) was added to the target plate and left to evaporate (30 s) at ambient conditions. Individual peptides (Ltnα or Ltnβ) were resuspended in 70% IPA and mixed at a 1:1 volume ratio with a 10-mg/ml stock solution of sinapinic acid in 60% ACN with 0.1% TFA. About 0.3 μl of this peptide-matrix solution was then added to the matrix layer previously applied to the plate and evaporated at ambient conditions. The plate was inserted into a MALDI-TOF Ultraflex mass spectrometer (Bruker) and analysed using reflectron positive 700–3500 Da mode. 100 shots were fired at 88% intensity. This method was also used for the analyses of samples from the enzyme degradation studies.
All lacticin 3147 samples were filtered through a 0.2-µm PES filter before analysis by RP-HPLC using an Agilent 1200 Infinity Series HPLC (Agilent Technologies, USA). The HPLC separations were carried out on an Aeris 3.6 µm Peptide 100 Å 250 × 4.6 mm, liquid chromatography column with a flow rate of 0.8 ml/min, and with 0.1% trifluoroacetic acid (TFA) in water as aqueous phase-A and 0.1% TFA in acetonitrile (ACN) as organic phase-B. The total run time was 51 min. The mobile phase started with 30:70 A:B for 3 min and change linearly to 35:65 A:B over 30 min. The organic phase was then adjusted to 100% within 1 min and continued to flow for 5 min. After this, the mobile phase returned to the initial ratio to stabilize the chromatographic system. The detector was set at 214 nm. The peak area (mAU) was plotted against the concentration (1.56–500 µg/ml) to make a calibration curve. The coefficients of determination (R^2 values) were 0.9963 and 0.9983 for Ltnα and Ltnβ respectively. This method was subsequently used for quantitative analysis of Ltnα and Ltnβ.
Trypsin and α-chymotrypsin stock solutions (50 mg/ml) were resuspended in water. Pepsin (50 mg/ml) was resuspended in 0.02 M HCL. About 1 mg/ml individual solutions of Ltnα and Ltnβ in 70% IPA were filtered and diluted (1 in 20) in sterile PBS to give a final peptide concentration of 50 µg/ml. After this, 5.3 µl Ltnα and 4.6 µl Ltnβ were added to the same well of a 96-well plate. The pH of the lacticin 3147-pepsin solution was 2.29. Control wells consisting of Ltnα and Ltnβ together, Ltnα alone, and Ltnβ alone with no enzyme were included. The 96-well plate was incubated for 3 h at 37 °C to allow the enzyme to act. After incubation, the wells were filled to 50 μl with PBS and 150 μl of diluted bacterial cell culture (L. monocytogenes at an OD of 0.1) was added to each well. The final peptide concentration of 400 nM (1.31 µg/ml Ltnα, 1.14 µg/ml Ltnβ) was obtained when the wells were filled to 200 µl. Blanks were set up in triplicate with media only and PBS only. The three control wells were also set up with bacterial culture and each enzyme only. […] The effect of the proteases pepsin, α-chymotrypsin, and trypsin on the lacticin 3147 peptides was determined by MALDI-TOF mass spectrometry. […] After 3 h, 1 µl was removed from each sample and it was analysed by MALDI-TOF mass spectrometry. […]
Pepsin’s effect on lacticin 3147 was also investigated by RP-HPLC. […] After incubation, aliquots were taken, filtered, and analysed by RP-HPLC to determine if pepsin degrades Ltnα or Ltnβ to any extent.

lacticin 3147
activity against L. lactis subsp. cremoris HP (L. lactis HP): active | activity against L. monocytogenes ATCC 1916 after incubation with pepsin (pepsin): remains active
